Experiment [1] deals with T1, Full length DGKζ (in-house protein M1-V929) (Homo sapiens, UniProt Q13574).
T1 construct: His (N); TEV site (N); made in house; host or cells: Sf9 insect cells (Bac-to-Bac baculovirus)
In words: Biochemical DGK IC50 assay (ADP-Glo, lipid micelle substrate), DGKζ. The settings on record: 1 hour preincubation, 1 hour reaction, room temperature. In a few lines:
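Full-length human DGKζ (M1-V929, His-TEV tagged, Sf9 baculovirus-expressed) with DAG/PS lipid micelle substrate in octyl glucoside, at room temperature in 50 mM HEPES, 10 mM MgCl2, 0.01 mM CaCl2 buffer.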
In general terms: ADP-Glo first removes unused ATP, then detects ADP through luciferase.

Experiment [2] deals with T2, Full length DGKα (D21-10BG, SignalChem) (Homo sapiens, UniProt P23743).
T2 construct: Full length DGKα (D21-10BG, SignalChem); purchased SignalChem D21-10BG
T2 sequence (P23743 whole entry): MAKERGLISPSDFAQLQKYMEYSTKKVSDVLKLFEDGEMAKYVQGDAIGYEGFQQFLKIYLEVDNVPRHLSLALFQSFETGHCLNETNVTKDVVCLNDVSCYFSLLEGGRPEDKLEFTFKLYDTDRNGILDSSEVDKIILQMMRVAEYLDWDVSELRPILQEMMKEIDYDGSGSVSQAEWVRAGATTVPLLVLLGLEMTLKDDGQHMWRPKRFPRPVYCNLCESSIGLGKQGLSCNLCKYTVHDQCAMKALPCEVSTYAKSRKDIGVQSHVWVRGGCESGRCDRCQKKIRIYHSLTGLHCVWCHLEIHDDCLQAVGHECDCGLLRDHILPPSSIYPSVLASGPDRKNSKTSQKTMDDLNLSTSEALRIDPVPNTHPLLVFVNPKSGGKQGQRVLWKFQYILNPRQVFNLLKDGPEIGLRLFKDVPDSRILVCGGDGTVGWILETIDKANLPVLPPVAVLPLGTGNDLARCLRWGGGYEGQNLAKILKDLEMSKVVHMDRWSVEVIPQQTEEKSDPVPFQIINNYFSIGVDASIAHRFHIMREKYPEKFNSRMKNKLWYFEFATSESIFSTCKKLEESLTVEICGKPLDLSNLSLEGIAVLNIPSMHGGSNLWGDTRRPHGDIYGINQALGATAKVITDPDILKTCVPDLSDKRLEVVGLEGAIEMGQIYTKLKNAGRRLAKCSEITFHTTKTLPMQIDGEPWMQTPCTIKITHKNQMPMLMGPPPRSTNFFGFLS
In words: Biochemical DGK IC50 assay (ADP-Glo, lipid micelle substrate), DGKα. The settings on record: 1 hour preincubation, 1 hour reaction, room temperature. A digest of the protocol:
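Full-length human DGKα with DAG/PS lipid micelle substrate (in octyl glucoside buffer), reacted 1 h at room temperature in 50 mM HEPES, 10 mM MgCl2, 0.01 mM CaCl2, 0.1 mM Na3VO4, 0.01% BSA, 0.005% Tween-20. ADP formed read by ADP-Glo luminescence; IC50 from inhibition across increasing compound concentrations.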

pIC50: −log10 of the molar value.

T1 sequence (Q13574 1-929 isoform Q13574-4): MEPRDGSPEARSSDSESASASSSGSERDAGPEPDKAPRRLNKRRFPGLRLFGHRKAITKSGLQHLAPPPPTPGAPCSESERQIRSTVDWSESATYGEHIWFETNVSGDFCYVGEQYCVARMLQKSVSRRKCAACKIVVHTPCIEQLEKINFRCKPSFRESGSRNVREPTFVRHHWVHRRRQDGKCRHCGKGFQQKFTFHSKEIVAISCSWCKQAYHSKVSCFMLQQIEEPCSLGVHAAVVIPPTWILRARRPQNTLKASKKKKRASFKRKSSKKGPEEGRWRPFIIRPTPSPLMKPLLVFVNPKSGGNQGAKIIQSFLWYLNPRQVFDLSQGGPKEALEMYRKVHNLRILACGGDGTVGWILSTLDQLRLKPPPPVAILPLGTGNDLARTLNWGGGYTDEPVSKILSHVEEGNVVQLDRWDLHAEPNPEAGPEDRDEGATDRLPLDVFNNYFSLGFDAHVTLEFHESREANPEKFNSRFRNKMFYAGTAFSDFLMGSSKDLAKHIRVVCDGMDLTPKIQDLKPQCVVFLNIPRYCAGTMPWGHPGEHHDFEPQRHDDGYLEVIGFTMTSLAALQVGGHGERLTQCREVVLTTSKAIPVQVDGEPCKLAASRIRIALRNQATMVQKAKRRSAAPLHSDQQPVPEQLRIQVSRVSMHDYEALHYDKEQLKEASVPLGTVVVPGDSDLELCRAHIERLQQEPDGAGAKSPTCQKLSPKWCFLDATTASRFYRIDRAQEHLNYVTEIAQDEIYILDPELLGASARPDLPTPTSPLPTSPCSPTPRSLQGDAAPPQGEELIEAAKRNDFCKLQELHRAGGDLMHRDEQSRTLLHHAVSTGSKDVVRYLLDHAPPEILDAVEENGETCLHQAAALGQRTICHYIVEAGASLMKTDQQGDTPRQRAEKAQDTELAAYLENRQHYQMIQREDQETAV

For `COCc1cc(F)ccc1C(C)N1C[C@H](C)N(c2nc(=O)n(C)c3c2nc(CC#N)n3C)C[C@H]1C` (single isomer, unassigned) [Compound A27b], the pIC50 (as a rule, −log10 of the IC50, conventionally taken in molar units) in experiment [1] was 7.82; in experiment [2], 4.00.
The corresponding values for `CC[C@@H]1CN(c2nc(=O)n(C)c3c2nc(CC#N)n3C)[C@@H](C)CN1C(C)c1ccc2c(n1)OC(C)(C)CO2` (single isomer, unassigned) [Compound A159b] are 6.16 and 4.20.
The corresponding values for `CCn1c(CC#N)nc2c(N3C[C@@H](C)N(C(C)c4ccc5c(c4)OC(F)(F)O5)C[C@@H]3C)nc(=O)n(C)c21` (stereo partly drawn) [Compound A99, 2-(6-((2S,5R)-4-(1-(2,2-difluorobenzo[d][1,3]dioxol-5-yl)ethyl)-2,5-dimethylpiperazin-1-yl)-9-ethyl-3-methyl-2-oxo-3,9-dihydro-2H-purin-8-yl)acetonitrile] are 6.89 and 4.25.
The matching figures for `CC(c1ccc2nccnc2c1)N1C[C@H](C)N(c2c(F)c(=O)n(C)c3c2nc(CC#N)n3C)C[C@H]1C` (single isomer, unassigned) [Compound A22a]: 7.59 and less than 5.00.
As to `Cc1ccc(C(C)N2C[C@H](C)N(c3c(F)c(=O)n(C)c4c3nc(CC#N)n4C)C[C@H]2C)c(C(F)(F)F)c1` (single isomer, unassigned) [Compound A15b], the pIC50 was 6.54 in experiment [1] and less than 5.00 in experiment [2].
The matching figures for `CCn1c(CC#N)nc2c(N3C[C@@H](C)N(C(C)c4ccc5c(c4)OC(F)(F)CO5)C[C@@H]3C)nc(=O)n(C)c21` (single isomer, unassigned) [Compound A80a]: 8.15 and 4.18.
The corresponding values for `CC(c1cc(F)c2c(n1)OC(C)(C)CO2)N1C[C@H](C)N(c2nc(=O)n(C)c3c2nc(CC#N)n3C)C[C@H]1C` (stereo partly drawn) [Compound A164, 2-(6-((2S,5R)-4-(1-(8-fluoro-3,3-dimethyl-2,3-dihydro-[1,4]dioxino[2,3-b]pyridin-6-yl)ethyl)-2,5-dimethylpiperazin-1-yl)-3,9-dimethyl-2-oxo-3,9-dihydro-2H-purin-8-yl)acetonitrile] are 7.51 and 3.90.
The matching figures for `CC[C@@H]1CN(c2nc(=O)n(C)c3c2nc(CC#N)n3CC)[C@@H](C)CN1C(C)c1ccc2c(n1)OC(C)(C)CO2` (mixture of isomers) [Compound A158, 2-(6-((2S,5R)-4-(1-(3,3-dimethyl-2,3-dihydro-[1,4]dioxino[2,3-b]pyridin-6-yl)ethyl)-5-ethyl-2-methylpiperazin-1-yl)-9-ethyl-3-methyl-2-oxo-3,9-dihydro-2H-purin-8-yl)acetonitrile]: 7.48 and 3.91.
Turning to `CC(c1ccc2c(c1)OC(F)(F)O2)N1C[C@H](C)N(c2nc(=O)n(C)c3c2nc(CC#N)n3C)C[C@H]1C` (stereo partly drawn) [Compound A167, 2-(6-((2S,5R)-4-(1-(2,2-difluorobenzo[d][1,3]dioxol-5-yl)ethyl)-2,5-dimethylpiperazin-1-yl)-3,9-dimethvl-2-oxo-3,9-dihydro-2H-purin-8-yl)acetonitrile], the pIC50 in experiment [1] is 7.05; in experiment [2], 4.72.
As to `CCn1c(CC#N)nc2c(N3C[C@@H](C)N(C(C)c4ccc5c(c4)C(=O)N(C)C5)C[C@@H]3C)nc(=O)n(C)c21` (stereo partly drawn) [Compound A100, 2-(6-((2S,5R)-2,5-dimethyl-4-(1-(2-methyl-3-oxoisoindolin-5-yl)ethyl)piperazin-1-yl)-9-ethyl-3-methyl-2-oxo-3,9-dihydro-2H-purin-8-yl)acetonitrile], the pIC50 in experiment [1] is 5.39; in experiment [2] it was less than 3.82.
The matching figures for `CC[C@H]1CN(C(C)c2ccc3ncc(C)nc3c2)[C@H](CC)CN1c1nc(=O)n(C)c2c1nc(CC#N)n2C` (single isomer, unassigned) [Compound A51a]: 8.52 and 4.85.
With `CC[C@@H]1CN(c2nc(=O)n(CC)c3c2nc(CC#N)n3C)[C@@H](C)CN1C(C)c1ccc2c(c1)OC(C)(C)CO2` (single isomer, unassigned) [Compound A66a], the pIC50 in experiment [1] is 6.66; in experiment [2], 4.80.

Source of the values: patent US20260125378A2, “Heterocyclic Compounds” (BeOne Medicines I GmbH, priority 2023, published 2026).
